# Results as given in patent publication US10906878B2, “Kinase inhibitors for the treatment of disease” (Dana-Farber Cancer Institute, Inc., priority 2013, dated 2021).
# What was measured:
# BLK = BLK (Homo sapiens (Human), UniProt P51451); assay: Kinase inhibition BLK; type: biochemical
# ITK = ITK (Homo sapiens (Human), UniProt Q08881); assay: Kinase inhibition ITK; type: biochemical
# TEC = TEC (Homo sapiens (Human), UniProt P42680); assay: Kinase inhibition TEC; type: biochemical
# TXK = TXK (Homo sapiens (Human), UniProt P42681); assay: Kinase inhibition TXK; type: biochemical
# Chain of TXK (P42681 whole entry): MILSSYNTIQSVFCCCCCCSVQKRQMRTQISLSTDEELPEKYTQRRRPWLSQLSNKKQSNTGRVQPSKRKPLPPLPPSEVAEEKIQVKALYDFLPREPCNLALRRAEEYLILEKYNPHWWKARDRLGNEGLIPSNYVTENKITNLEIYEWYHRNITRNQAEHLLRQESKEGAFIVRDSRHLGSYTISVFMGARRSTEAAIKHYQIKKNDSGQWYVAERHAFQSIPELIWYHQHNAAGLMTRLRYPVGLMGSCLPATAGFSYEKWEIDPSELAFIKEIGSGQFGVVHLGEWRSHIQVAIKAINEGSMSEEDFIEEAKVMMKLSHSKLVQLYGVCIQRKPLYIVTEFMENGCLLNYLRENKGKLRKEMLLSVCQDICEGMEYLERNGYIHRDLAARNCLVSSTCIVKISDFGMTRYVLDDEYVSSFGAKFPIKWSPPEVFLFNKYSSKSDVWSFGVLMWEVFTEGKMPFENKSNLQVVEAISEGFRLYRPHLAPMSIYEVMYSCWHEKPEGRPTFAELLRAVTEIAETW
# Ba/F3 TEL-ABL = Ba/F3 TEL-ABL (Homo sapiens, UniProt P00519); assay: Inhibition of Ba/F3 TEL-ABL cell line; type: cell-based; settings: read-out: IC50 (μM) Ba/F3 TEL-ABL
# Chain of Ba/F3 TEL-ABL (P00519 whole entry, looked up, change not shown): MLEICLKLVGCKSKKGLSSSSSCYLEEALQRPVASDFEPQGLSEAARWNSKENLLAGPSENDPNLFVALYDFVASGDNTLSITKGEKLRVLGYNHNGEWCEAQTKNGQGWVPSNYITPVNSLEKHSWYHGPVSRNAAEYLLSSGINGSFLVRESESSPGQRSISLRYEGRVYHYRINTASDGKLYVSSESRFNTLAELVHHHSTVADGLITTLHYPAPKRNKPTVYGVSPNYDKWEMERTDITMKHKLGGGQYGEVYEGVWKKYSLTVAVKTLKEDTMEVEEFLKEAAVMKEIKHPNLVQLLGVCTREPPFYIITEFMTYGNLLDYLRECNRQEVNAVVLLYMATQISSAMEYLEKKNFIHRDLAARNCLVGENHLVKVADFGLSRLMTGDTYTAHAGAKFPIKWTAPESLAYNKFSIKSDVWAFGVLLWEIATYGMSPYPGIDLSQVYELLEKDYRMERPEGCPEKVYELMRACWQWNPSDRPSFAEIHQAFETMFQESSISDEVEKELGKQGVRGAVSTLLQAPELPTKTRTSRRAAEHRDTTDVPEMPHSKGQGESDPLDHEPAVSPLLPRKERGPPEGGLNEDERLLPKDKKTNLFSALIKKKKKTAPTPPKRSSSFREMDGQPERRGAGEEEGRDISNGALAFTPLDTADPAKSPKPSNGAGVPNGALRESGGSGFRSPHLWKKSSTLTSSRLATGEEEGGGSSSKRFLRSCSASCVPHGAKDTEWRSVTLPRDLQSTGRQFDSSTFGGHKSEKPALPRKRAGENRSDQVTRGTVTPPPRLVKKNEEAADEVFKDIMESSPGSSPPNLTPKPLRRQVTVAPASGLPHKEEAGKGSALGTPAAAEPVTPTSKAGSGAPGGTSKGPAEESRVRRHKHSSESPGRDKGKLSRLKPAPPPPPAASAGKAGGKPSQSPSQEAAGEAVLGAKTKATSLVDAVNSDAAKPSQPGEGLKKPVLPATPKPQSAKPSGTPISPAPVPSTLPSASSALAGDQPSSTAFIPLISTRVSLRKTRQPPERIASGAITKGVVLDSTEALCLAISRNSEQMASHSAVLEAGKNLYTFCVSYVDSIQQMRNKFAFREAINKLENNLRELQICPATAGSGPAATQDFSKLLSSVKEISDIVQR
# Experimental: (§1) Growth and inhibition of growth was assessed by MTS assay. This assay, a colorimetric method for determining the number of viable cells, is based on the bioreduction of 3-(4,5-dimethylthiazol-2-yl)-5-(3-carboxymethoxyphenyl)-2-(4-sulfophenyl)-2H-tetrazolium (MTS) by cells to a formazan product that is soluble in cell culture medium, can be detected spectrophotometrically and was performed according to the manufacturer's recommended conditions. Ba/F3 cells were exposed to treatment for 72 hours and the number of cells used per experiment determined empirically to assure linear growth kinetics over that time period. All experimental points were set up in six to twelve wells and all experiments were repeated at least three times. […] The curves were fitted using a non-linear regression model with a sigmoidal dose response.
# Ba/F3 TYK2_E957D = Ba/F3 TYK2_E957D (Homo sapiens (Human), UniProt P29597, E957D); assay: Inhibition of Ba/F3 TYK2_E957D cell line; type: cell-based; settings: read-out: IC50 (μM) Ba/F3 TYK2_E957D
# Chain of Ba/F3 TYK2_E957D (P29597 whole entry E957D): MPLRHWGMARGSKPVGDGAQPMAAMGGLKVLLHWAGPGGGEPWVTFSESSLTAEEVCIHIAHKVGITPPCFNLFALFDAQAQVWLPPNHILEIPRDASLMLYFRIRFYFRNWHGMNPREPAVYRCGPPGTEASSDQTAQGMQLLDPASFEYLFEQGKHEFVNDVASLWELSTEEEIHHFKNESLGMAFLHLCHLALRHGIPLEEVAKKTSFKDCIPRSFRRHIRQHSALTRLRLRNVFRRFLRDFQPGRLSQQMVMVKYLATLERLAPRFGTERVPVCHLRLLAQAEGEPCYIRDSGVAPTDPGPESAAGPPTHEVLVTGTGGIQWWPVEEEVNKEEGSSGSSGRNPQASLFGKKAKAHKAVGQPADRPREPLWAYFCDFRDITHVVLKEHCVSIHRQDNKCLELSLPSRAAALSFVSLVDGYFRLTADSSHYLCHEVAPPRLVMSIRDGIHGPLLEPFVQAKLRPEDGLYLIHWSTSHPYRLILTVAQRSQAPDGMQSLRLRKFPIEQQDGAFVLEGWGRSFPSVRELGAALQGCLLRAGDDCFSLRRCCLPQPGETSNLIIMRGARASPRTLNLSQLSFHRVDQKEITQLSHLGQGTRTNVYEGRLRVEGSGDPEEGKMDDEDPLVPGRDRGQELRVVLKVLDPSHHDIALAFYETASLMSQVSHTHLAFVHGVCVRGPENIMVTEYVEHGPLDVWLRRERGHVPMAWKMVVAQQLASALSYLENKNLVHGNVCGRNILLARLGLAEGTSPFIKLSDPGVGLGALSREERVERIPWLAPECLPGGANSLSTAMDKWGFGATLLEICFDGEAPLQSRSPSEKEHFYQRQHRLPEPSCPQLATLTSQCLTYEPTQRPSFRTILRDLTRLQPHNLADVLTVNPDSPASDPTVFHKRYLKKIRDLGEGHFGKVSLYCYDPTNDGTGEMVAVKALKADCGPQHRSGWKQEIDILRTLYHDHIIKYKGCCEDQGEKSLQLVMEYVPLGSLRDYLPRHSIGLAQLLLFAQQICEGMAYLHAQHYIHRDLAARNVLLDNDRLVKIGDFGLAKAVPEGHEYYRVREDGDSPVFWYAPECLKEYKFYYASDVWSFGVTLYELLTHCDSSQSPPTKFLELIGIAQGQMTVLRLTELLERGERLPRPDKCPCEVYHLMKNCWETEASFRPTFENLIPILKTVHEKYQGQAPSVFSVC
# Experimental: as §1
# Ba/F3 TEL-JAK1 = Ba/F3 TEL-JAK1 (Homo sapiens, UniProt P23458); assay: Inhibition of Ba/F3 TEL-JAK1 cell line; type: cell-based; settings: read-out: IC50 (μM) Ba/F3 TEL-JAK1
# Chain of Ba/F3 TEL-JAK1 (P23458 whole entry, looked up, change not shown): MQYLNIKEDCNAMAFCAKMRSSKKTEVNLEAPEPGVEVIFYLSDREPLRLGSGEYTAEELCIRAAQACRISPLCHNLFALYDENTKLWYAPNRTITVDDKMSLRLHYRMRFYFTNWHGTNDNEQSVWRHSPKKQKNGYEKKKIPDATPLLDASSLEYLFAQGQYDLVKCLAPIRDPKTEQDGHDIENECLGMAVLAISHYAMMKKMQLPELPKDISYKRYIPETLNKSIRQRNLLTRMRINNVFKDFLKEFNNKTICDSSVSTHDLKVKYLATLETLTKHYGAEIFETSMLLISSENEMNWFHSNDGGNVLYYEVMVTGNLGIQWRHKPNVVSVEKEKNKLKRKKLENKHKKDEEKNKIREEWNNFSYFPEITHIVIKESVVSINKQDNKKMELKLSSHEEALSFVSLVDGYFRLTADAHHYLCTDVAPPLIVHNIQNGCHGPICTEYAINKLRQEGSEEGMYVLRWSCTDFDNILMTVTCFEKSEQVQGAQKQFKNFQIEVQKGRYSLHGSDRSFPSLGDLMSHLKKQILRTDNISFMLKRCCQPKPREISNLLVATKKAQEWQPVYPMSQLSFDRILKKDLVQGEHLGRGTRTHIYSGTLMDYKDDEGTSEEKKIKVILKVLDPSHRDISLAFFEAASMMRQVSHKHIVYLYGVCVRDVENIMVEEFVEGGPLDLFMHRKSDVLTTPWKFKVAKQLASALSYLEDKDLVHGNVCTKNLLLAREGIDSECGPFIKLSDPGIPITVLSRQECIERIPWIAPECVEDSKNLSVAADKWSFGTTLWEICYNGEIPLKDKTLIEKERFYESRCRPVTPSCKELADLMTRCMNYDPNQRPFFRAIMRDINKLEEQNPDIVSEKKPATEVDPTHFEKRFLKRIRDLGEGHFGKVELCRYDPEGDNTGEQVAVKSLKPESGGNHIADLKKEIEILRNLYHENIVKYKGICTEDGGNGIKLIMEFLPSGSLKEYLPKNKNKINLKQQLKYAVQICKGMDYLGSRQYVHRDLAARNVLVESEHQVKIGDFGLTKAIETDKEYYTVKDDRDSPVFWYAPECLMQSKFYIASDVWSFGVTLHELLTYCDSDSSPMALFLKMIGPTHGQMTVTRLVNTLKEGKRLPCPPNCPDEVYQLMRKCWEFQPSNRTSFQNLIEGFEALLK
# Experimental: as §1
# Ba/F3 TEL-JAK2 = Ba/F3 TEL-JAK2 (Homo sapiens, UniProt O60674); assay: Inhibition of Ba/F3 TEL-JAK2 cell line; type: cell-based; settings: read-out: IC50 (μM) Ba/F3 TEL-JAK2
# Chain of Ba/F3 TEL-JAK2 (O60674 whole entry, looked up, change not shown): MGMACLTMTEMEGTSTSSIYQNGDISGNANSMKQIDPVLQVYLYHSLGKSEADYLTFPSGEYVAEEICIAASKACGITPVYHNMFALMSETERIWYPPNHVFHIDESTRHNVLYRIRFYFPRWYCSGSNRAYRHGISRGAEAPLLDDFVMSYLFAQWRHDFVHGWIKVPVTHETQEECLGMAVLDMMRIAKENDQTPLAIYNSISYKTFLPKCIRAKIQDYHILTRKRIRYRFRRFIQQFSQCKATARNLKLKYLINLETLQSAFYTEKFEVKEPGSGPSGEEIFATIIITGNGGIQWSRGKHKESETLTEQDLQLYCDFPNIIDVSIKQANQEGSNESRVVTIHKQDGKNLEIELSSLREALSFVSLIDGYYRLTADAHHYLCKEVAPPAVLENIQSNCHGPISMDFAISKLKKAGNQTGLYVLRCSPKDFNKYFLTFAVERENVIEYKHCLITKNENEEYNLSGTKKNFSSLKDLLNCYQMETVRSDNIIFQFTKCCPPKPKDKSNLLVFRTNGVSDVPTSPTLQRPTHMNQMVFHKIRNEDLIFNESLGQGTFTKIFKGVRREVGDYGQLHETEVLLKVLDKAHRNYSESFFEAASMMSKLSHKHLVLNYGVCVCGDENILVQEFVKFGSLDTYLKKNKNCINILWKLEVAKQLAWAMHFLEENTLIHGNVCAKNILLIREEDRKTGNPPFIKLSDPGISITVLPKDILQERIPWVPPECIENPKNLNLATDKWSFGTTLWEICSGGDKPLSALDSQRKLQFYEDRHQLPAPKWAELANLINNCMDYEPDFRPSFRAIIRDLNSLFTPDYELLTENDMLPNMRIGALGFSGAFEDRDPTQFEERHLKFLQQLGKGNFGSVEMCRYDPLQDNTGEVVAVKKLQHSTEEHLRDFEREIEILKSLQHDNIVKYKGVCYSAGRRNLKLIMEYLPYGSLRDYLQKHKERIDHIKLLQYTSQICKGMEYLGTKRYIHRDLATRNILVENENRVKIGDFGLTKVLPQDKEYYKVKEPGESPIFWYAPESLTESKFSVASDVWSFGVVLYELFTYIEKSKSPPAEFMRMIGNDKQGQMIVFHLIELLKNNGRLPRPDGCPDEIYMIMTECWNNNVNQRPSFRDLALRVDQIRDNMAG
# Experimental: as §1
# Ba/F3 TEL-JAK3 = Ba/F3 TEL-JAK3 (Homo sapiens, UniProt P52333); assay: Inhibition of Ba/F3 TEL-JAK3 cell line; type: cell-based; settings: read-out: IC50 (μM) Ba/F3 TEL-JAK3
# Experimental: as §1
smiles,measurement,setting,value
C=CC(=O)Nc1cccc(N(C(=O)OCc2ccccc2)c2ccnc(Nc3cnn(C)c3)n2)c1 [Compound 83A],"Kinase inhibition (% control, 1000 nM compound) BLK",BLK,0.4 % control
same,"Kinase inhibition (% control, 1000 nM compound) ITK",ITK,66 % control
same,"Kinase inhibition (% control, 1000 nM compound) TEC",TEC,5.7 % control
same,"Kinase inhibition (% control, 1000 nM compound) TXK",TXK,3.8 % control
same,IC50,Ba/F3 TEL-ABL,16.7 µM
same,IC50,Ba/F3 TYK2_E957D,2.95 µM
same,IC50,Ba/F3 TEL-JAK1,9 µM
same,IC50,Ba/F3 TEL-JAK2,17.5 µM
same,IC50,Ba/F3 TEL-JAK3,0.107 µM
